Experimental data taken from PMC9979715 (Blood Advances, 2022).

Biological target: T1, MAP2K7 (Homo sapiens, UniProt O14733)
T1 sequence (O14733 2-419): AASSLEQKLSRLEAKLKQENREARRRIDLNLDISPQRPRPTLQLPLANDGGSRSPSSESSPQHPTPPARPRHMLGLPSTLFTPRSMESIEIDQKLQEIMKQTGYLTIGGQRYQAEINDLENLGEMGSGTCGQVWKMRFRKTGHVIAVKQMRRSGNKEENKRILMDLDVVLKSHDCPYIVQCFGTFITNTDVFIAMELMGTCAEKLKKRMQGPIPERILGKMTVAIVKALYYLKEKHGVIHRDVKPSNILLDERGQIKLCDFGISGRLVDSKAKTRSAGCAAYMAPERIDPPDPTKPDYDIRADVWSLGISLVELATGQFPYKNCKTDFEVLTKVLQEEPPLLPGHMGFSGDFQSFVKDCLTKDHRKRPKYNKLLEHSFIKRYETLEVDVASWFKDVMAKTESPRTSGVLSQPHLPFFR
Experiment: ADP-Glo kinase assay, purified human MAP2K7 with dead-JNK2 substrate and ATP
Type: biochemical

CC(=O)c1cnc2ccc(-c3cc(Cl)c(O)c(Cl)c3)nc2c1N[C@H]1CC[C@H](CN(C)C)CC1 [OTSSP167]
IC50: 160 nM
